This is an account of results in US20220133747A1, “ESTROGEN RECEPTOR INHIBITORS AND USES THEROF” (The Regents of the University of California, priority 2018, published 2022).

For data set [1] the following is noted: clinic; cited from earlier work.
Data set [2] relates to 4T1 triple negative breast cancer cells. The data set is described as follows: 4T1 cell proliferation in vitro, Incucyte live-cell confluence. It is filed as cell-based, mouse. The settings on record: 10, 100, 1000 nM, presence or absence of estradiol-17β, 5 days. Here is the method:
FIGS. 23A-23C show estrogen effects on ERα negative tumor growth in vitro and in vivo. […] Female 6-wk-old BALB/c mice, either ovariectomized (ovx) or sham-operated (intact), were inoculated s.c. with 2×10^5 4T1 TNBC cells. Tumor growth was then assessed every 3 days, with tumor volume calculated as V=(l×w×w)/2. ****P≤0.0001. […] 4T1 cells were grown in the presence (+E2) or absence (−E2) of estradiol-17β and increasing concentrations of SERD128 at 10 nM (128-10), 100 nM (128-100) or 1000 nM (128-1000). Cell proliferation was assessed using the Incucyte S3 Live-Cell Analysis system with pictures obtained every 4-6 hours. […] Tumors were measured every 3 days, and tumor volume was calculated as V=(W(2)×L)/2). **P<0,01, ****P<0.0001 as compared to control group. n=11-12.
MCF-7 and other selected BC cells were seeded in 96-well plates at […] in complete medium. […] Cell number and viability were determined by either cell counts or by colorimetric assays using the CELLTITER 96 AQUEOUS (Promega) assay or the cell proliferation ELISA BrdU assay (Roche) as per manufacturer's instructions. […] In selected experiments using the INCUCYTE™ Live Cell System (Essen Bioscience) as per the manufacturer's instructions, the proliferation of 4T1 cells maintained in a tissue culture incubator was monitored by using the NucLight Rapid Red Reagent for cell labeling in 6-well plates. […]

Entries after “also recorded” stand apart in the source; their conditions may differ.

For the compound `C[C@]12CC[C@@H]3c4ccc(O)cc4C[C@@H](CCCCCCCCC[S+]([O-])CCCC(F)(F)C(F)(F)F)[C@H]3[C@@H]1CC[C@@H]2O` (some centres unmarked) [fulvestrant, reference compound], the bioavailability result in data set [1] is listed as “very low bioavailability”. With `C[C@]12C[C@H](Oc3ccc(N)c(C(F)(F)F)c3)[C@@H]3c4ccc(O)cc4CC[C@H]3[C@@H]1CC[C@@H]2O` [SERD128, (8S,9S,11S,13S,14S,17S)-11-(4-Amino-3-(trifluoromethyl)phenoxy)-13-methyl-7,8,9,11,12,13,14,15,16,17-decahydro-6H-cyclopenta[a]phenanthrene-3,17-diol], the “4T1 cell proliferation (phase object confluence)” value in data set [2] is “No significant differences were observed in cell proliferation; also recorded: did not elicit any significant effect on cell growth in vitro”.
